{"source": "patent EP4755890A1", "about": "“OXO-TRICYCLIC DERIVATIVE AND PHARMACEUTICAL USE THEREOF” (Haisco Pharmaceutical Group Co., Ltd., priority 2023, dated 2025)", "key": {"CYP2C19": {"molecular_target": "T1, CYP2C19 (Homo sapiens, UniProt P33261)", "T1 construct": "co-incubated with human liver microsomes; from tissue; host or cells: human liver microsomes", "assay": "CYP450 enzyme activity inhibition assay, CYP2C19", "format": "in vitro ADME", "description": "(§1) The purpose of this study was to evaluate the effects of the test compounds on the activities of five isoenzymes (CYP1A2, CYP2C9, CYP2C19, CYP2D6, and CYP3A4) of human liver microsomal cytochrome P450 (CYP) using an in vitro testing system. The specific probe substrates for each CYP450 isoenzyme were co-incubated with human liver microsomes and the test compounds at different concentrations, and reduced nicotinamide adenine dinucleotide phosphate (NADPH) was added to initiate the reaction. After the reactions were completed, the samples were treated, and liquid chromatography-tandem mass spectrometry (LC-MS/MS) was used to quantitatively detect metabolites produced by the specific substrates. The changes in CYP enzyme activities were determined, and the IC50 values were calculated to evaluate the inhibitory potential of the test compounds against each CYP enzyme subtype."}, "SW48 cells": {"system": "SW48 cells", "assay": "SW48 cell proliferation inhibition assay (CellTiter-Glo)", "format": "cell-based", "conditions": "Homo sapiens, 96 h, 4 days, read-out: Inhibitory activity against SW48 cell proliferation IC50", "description": "The culture conditions for SW48 cells were as follows: Leibovitz L15 + 10% FBS + 1% penicillin-streptomycin, and the cells were cultured in an incubator without CO2 at 37°C. On the first day, the SW48 cells in the exponential growth phase were collected and plated in 96-well cell culture plates at a density of 1000 cells/well (180 µL/well). The plates were cultured overnight in an incubator without CO2 at 37°C. T0 wells were plated simultaneously during the plating process. The next day, 20 µL of compounds at different concentrations were added to each well (nine compound concentration gradients, one DMSO well, and one blank well; each compound concentration was plated in triplicate), and the final concentration of DMSO in each well was 0.1%. The plates were cultured in an incubator without CO2 at 37°C for 4 days. On the same day of compound addition, the T0 plate was detected using the CellTiter-Glo Kit, and the detected value was recorded as RLU0. After the culture was completed, 100 µL of detection solution (Cell Viability Assay, Promega) was added to each well. The plates were incubated at room temperature for 10 minutes with slow shaking. The chemiluminescence reading was read using a BMG microplate reader (PHERAstar FSX). The results were processed according to Formula (5) to calculate the proliferation inhibition rate of compounds at each concentration. Curve fitting was performed via a four-parameter logistic model using GraphPad Prism software, and the GI50 value (the concentration of the compound when the proliferation inhibition rate was 50%) was calculated. In the formula, RLUcompound is the readout of the drug-treated group, RLUcontrol is the average value of the compound vehicle control group, and RLUBlank is the average value of the blank control group. [formula] Table 3. Results of inhibitory activity of test compounds against cell proliferation"}, "CYP3A4": {"molecular_target": "T2, CYP3A4 (Homo sapiens, UniProt P08684)", "T2 construct": "co-incubated with human liver microsomes; from tissue; host or cells: human liver microsomes", "assay": "CYP450 enzyme activity inhibition assay, CYP3A4", "format": "in vitro ADME", "description": "as §1"}, "CYP2D6": {"molecular_target": "T3, CYP2D6 (Homo sapiens, UniProt P10635)", "T3 construct": "co-incubated with human liver microsomes; from tissue; host or cells: human liver microsomes", "assay": "CYP450 enzyme activity inhibition assay, CYP2D6", "format": "in vitro ADME", "description": "as §1"}, "CYP2C9": {"molecular_target": "T4, CYP2C9 (Homo sapiens, UniProt P11712)", "T4 construct": "co-incubated with human liver microsomes; from tissue; host or cells: human liver microsomes", "assay": "CYP450 enzyme activity inhibition assay, CYP2C9", "format": "in vitro ADME", "description": "as §1"}, "[1]": {"molecular_target": "T5, WRN protein (AA N517-P1238, ICE, Cat. S2212T-H56HZ) (Homo sapiens, UniProt Q14191)", "T5 construct": "WRN protein (AA N517-P1238, ICE, Cat. S2212T-H56HZ); purchased ICE S2212T-H56HZ", "T5 sequence (Q14191 517-1238, stated change not applied)": "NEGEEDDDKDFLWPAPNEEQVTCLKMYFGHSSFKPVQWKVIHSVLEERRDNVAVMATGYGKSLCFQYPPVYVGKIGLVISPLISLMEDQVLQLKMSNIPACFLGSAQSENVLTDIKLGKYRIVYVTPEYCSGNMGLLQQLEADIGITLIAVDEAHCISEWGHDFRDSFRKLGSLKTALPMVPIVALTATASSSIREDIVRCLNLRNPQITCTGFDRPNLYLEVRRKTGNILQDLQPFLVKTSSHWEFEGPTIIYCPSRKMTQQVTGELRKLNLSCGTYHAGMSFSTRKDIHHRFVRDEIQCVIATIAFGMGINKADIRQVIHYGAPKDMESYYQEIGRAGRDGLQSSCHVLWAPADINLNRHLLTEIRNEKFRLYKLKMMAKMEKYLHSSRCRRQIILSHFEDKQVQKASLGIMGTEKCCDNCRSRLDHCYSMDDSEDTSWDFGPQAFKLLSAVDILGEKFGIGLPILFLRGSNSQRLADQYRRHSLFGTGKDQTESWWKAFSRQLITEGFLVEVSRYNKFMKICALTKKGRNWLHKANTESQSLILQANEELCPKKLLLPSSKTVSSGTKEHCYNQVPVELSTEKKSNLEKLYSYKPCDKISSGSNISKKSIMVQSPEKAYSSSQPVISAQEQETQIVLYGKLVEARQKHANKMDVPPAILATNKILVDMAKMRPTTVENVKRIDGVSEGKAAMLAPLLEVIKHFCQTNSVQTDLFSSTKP", "assay": "Assay for WRN helicase activity (FORKF dsDNA unwinding, fluorescence)", "format": "biochemical", "conditions": "inhibition of WRN helicase activity; 10 nM WRN, 10 nM FORKF, 2 mM ATP", "description": "The assay buffer working solution prepared with RNAase-free water was as follows: 25 mM Tris (pH 7.5), 2 mM MgCl2, 50 mM NaCl, 0.02% BSA, 0.01% Tween, and 1 mM DTT. WRN protein (AA N517-P1238, ICE, Cat. S2212T-H56HZ) was obtained through protein expression and purification in vitro. Two single-stranded DNAs were synthesized: […]-BHQ2 (quencher), and (fluorophore) TAMRA-[…]. dsDNA (FORKF) was obtained via annealing of the two single-stranded DNAs. When the WRN protein bound to FORKF, the dsDNA was unwound, exposing the fluorophore, thereby generating fluorescence. 2 µL of compounds at different concentrations and 4 µL of WRN protein were added to a 384-well black plate (Greiner, Cat#784075). The plate was pre-incubated at room temperature for 20 minutes. 2 µL each of ATP and the FORKF substrate were added. The working concentrations of the WRN protein, FORKF, and ATP were 10 nM, 10 nM, and 2 mM, respectively. The plate was incubated at room temperature for 20 minutes. After the incubation was completed, the fluorescence value was read at Ex 540 nm/Em 590 nm using a BMG microplate reader (PHERAstar FSX).\nThe inhibition rate was calculated according to Formula 2, where RLUsample is the readout of the compound well, RLUmax is the readout of the DMSO control well, and RLUmin is the readout of the control well without the WRN protein. Curve fitting was performed via a four-parameter logistic model using GraphPad Prism software, and the IC50 value (the concentration of the compound when the inhibition rate was 50%) was calculated. Inhibition% = (1−(RLUsample−RLUmin)/(RLUmax−RLUmin)) × 100% [formula] Table 2. Results of inhibitory activity of test compounds against WRN helicase activity"}, "[2]": {"assay": "Mouse pharmacokinetic assay", "format": "in vivo, Balb/c mice", "conditions": "for pharmacokinetic properties: mouse", "description": "4.1. Experimental animals: Male Balb/c mice, about 22 g, 6-8 weeks old, 6 mice/compound. The animals were purchased from CHENGDU DOSSY EXPERIMENTAL ANIMALS CO., LTD.\n4.2. Experimental design: On the day of the experiment, the Balb/c mice were randomly grouped according to their body weights. The animals were fasted with water available for 12-14 h one day before the administration, and were fed 4 h after the administration. Table 4. Administration information\nVehicle for intravenous administration: 5% DMA + 5% Solutol + 90% Saline; and vehicle for intragastric administration: 5% DMSO + 95% (20% SBE-β-CD in Saline)\nBefore and after the administration, 0.03 ml of blood was taken from the orbit under isoflurane anesthesia and placed in an EDTAK2 centrifuge tube. The tube was centrifuged at 5000 rpm at 4°C for 10 min, and plasma was collected. The blood collection time points for the intravenous administration group and intragastric administration group were as follows: 0, 2 min, 5 min, 15 min, 30 min, 1 h, 2 h, 4 h, and 7 h. Before analysis and detection, all samples were stored at - 80°C. Table 5. Pharmacokinetic parameters of test compounds in mouse plasma"}}, "note": "Where two headings read alike, the source gives them in different places.", "data": [{"smiles": "Cc1ncnc(C(=O)N2CCN(c3c4n(c5nc(C6=CCOCC6)nn5c3=O)C(C(=O)Nc3ccc(C(F)(F)F)cc3Cl)CCC4)C[C@H]2C)c1O", "note": "(single isomer, unassigned) [Compound 8-B]", "values": [{"measurement": "IC50", "setting": "CYP2C19", "value": "> 30", "unit": "µM"}, {"measurement": "IC50", "setting": "SW48 cells", "value": "< 0.1", "unit": "µM"}, {"measurement": "IC50", "setting": "CYP3A4", "value": "> 30", "unit": "µM"}, {"measurement": "IC50", "setting": "CYP2D6", "value": "> 30", "unit": "µM"}, {"measurement": "IC50", "setting": "CYP2C9", "value": "> 30", "unit": "µM"}, {"measurement": "IC50", "setting": "[1]", "value": "< 0.02", "unit": "µM"}, {"measurement": "pharmacokinetic properties", "setting": "[2]; result in words", "value": "favorable"}]}, {"smiles": "Cc1ncnc(C(=O)N2CCN(c3c4n(c5nc(C6=CCOCC6)nn5c3=O)[C@@H](C(=O)Nc3ccc(C(F)(F)F)cc3Cl)CCC4)CC2)c1O", "note": "[Compound 1-B]", "values": [{"measurement": "IC50", "setting": "CYP2C19", "value": "> 30", "unit": "µM"}, {"measurement": "IC50", "setting": "SW48 cells", "value": "< 0.1", "unit": "µM"}, {"measurement": "IC50", "setting": "CYP3A4", "value": "> 30", "unit": "µM"}, {"measurement": "IC50", "setting": "CYP2D6", "value": "> 30", "unit": "µM"}, {"measurement": "IC50", "setting": "CYP2C9", "value": "> 30", "unit": "µM"}, {"measurement": "IC50", "setting": "[1]", "value": "< 0.02", "unit": "µM"}, {"measurement": "pharmacokinetic properties", "setting": "[2]; result in words", "value": "favorable"}]}, {"smiles": "Cc1ncnc(C(=O)N2[C@@H](C)CN(c3c4n(c5nc(C6=CCOCC6)nn5c3=O)[C@@H](C(=O)Nc3ccc(C(F)(F)F)cc3Cl)CCC4)C[C@@H]2C)c1O", "note": "[Compound 20-A]", "values": [{"measurement": "IC50", "setting": "CYP2C19", "value": "> 30", "unit": "µM"}, {"measurement": "IC50", "setting": "SW48 cells", "value": "< 0.1", "unit": "µM"}, {"measurement": "IC50", "setting": "CYP3A4", "value": "> 30", "unit": "µM"}, {"measurement": "IC50", "setting": "CYP2D6", "value": "> 30", "unit": "µM"}, {"measurement": "IC50", "setting": "CYP2C9", "value": "> 30", "unit": "µM"}, {"measurement": "IC50", "setting": "[1]", "value": "< 0.02", "unit": "µM"}, {"measurement": "AUC(0-t)", "setting": "[2]; po, mouse plasma, i.g. (10 mg/kg)", "value": 38500, "unit": "ng·h/mL"}, {"measurement": "bioavailability", "setting": "[2]; po, mouse plasma, i.g. (10 mg/kg), read-out: F (%)", "value": 93.4, "unit": "%"}, {"measurement": "bioavailability", "setting": "[2]; result in words, in mice", "value": "good"}, {"measurement": "exposure level", "setting": "[2]; result in words, in mice", "value": "high"}, {"measurement": "pharmacokinetic properties", "setting": "[2]; result in words", "value": "favorable"}]}]}
